Tests used:
Assay type in all cases: in vivo
[1] = system: duck salad (Heteranthera limosa); assay: Test C flooded paddy test; conditions: for Ducksalad plant response rating: Flooded Paddy, scale 0 to 100, 0 no effect, 100 complete control; for Plant response rating, Ducksalad: flooded paddy test, scale 0 to 100 (0 no effect, 100 complete control)
Procedure, shortened: (§1)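 Visual injury score, 0 (no effect) to 100 (complete control), relative to controls. Paddy plants treated at 2-leaf stage; greenhouse hold 12–14 d before rating.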

[2] = system: smallflower flatsedge (Cyperus difformis); assay: Test C flooded paddy test; conditions: for Flatsedge plant response rating: Flooded Paddy, scale 0 to 100, 0 no effect, 100 complete control; for Plant response rating, Flatsedge: flooded paddy test, scale 0 to 100 (0 no effect, 100 complete control)
Procedure, shortened: as §1

[3] = system: barnyardgrass (Echinochloa crus-galli); assay: Test C flooded paddy test; conditions: for Barnyardgrass plant response rating: Flooded Paddy, scale 0 to 100, 0 no effect, 100 complete control; for Plant response rating, Barnyardgrass: flooded paddy test, scale 0 to 100 (0 no effect, 100 complete control)
Procedure, shortened: as §1

corn (Zea mays) = assay: Test C preemergence
Procedure, shortened: (§2)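 Response scores (0 no effect to 100 complete control) came from visual comparison with untreated controls 12 to 14 days after treatment. Preemergence application was made to seeded soil; postemergence, to plants at the 1- to 4-leaf stage.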

[4] = system: lambsquarters (Chenopodium album); assay: Test C preemergence
Procedure, shortened: as §2

Sunflower [5] = assay: Test C preemergence
Nightshade = assay: Test C preemergence
[6] = system: giant foxtail (Setaria faberii); assay: Test C preemergence
Procedure, shortened: as §2

[7] = system: woolly cupgrass (Eriochloa villosa); assay: Test C preemergence
Procedure, shortened: as §2

soybean (Glycine max) = assay: Test C preemergence
Procedure, shortened: as §2

[8] = system: Surinam grass (Brachiaria decumbens); assay: Test C preemergence
Procedure, shortened: as §2

[9] = system: goosegrass (Eleusine indica); assay: Test C preemergence
Procedure, shortened: as §2

[10] = system: bermudagrass (Cynodon dactylon); assay: Test C preemergence
Procedure, shortened: as §2

[11] = system: morningglory (Ipomoea hederacea); assay: Test C preemergence
Procedure, shortened: as §2

[12] = system: velvetleaf (Abutilon theophrasti); assay: Test C preemergence
Procedure, shortened: as §2

[13] = system: johnsongrass (Sorghum halepense); assay: Test C preemergence
Procedure, shortened: as §2

[14] = system: crabgrass (Digitaria sanguinalis); assay: Test C preemergence
Procedure, shortened: as §2

[15] = system: pigweed (Amaranthus retroflexus); assay: Test C preemergence
Procedure, shortened: as §2

kochia (Kochia scoparia) = assay: Test C preemergence
Procedure, shortened: as §2

[16] = system: cocklebur (Xanthium strumarium); assay: Test C preemergence
Procedure, shortened: as §2

[17] = system: yellow nutsedge (Cyperus esculentus); assay: Test C preemergence
Procedure, shortened: as §2

Sunflower [18] = assay: Test C preemergence; conditions: Rate 250 g/ha, visual evaluation after 12 to 14 days
[19] = Preemergence, Rate 500 g/ha, scale 0 to 100
[20] = Rate 62 g/ha, scale 0 to 100, 0 no effect, 100 complete control
[21] = preemergence, Rate 250 g/ha, visual evaluation after 12 to 14 days
[22] = preemergence, Rate 125 g/ha, scale 0 to 100, 0 no effect, 100 complete control

For `CCC(C)c1ccn(C2SCN(c3cccc(OC(F)(F)F)c3)C2=O)n1` (centres unmarked) [Compound 40], the “Ducksalad plant response rating” value ([1]; Rate 250 g/ha) was 100, the “Ducksalad plant response rating” value ([1]; Rate 500 g/ha) was 100 and the “Plant response rating, Ducksalad” value ([1]; Rate 62 g/ha) was 90. For the same compound, the “Plant response rating, Ducksalad” value ([1]; Rate 125 g/ha) was 100, the “Flatsedge plant response rating” value ([2]; Rate 250 g/ha) was 100 and the “Flatsedge plant response rating” value ([2]; Rate 500 g/ha) was 100. The “Plant response rating, Flatsedge” value ([2]; Rate 62 g/ha) was 100, the “Plant response rating, Flatsedge” value ([2]; Rate 125 g/ha) was 100 and the “Barnyardgrass plant response rating” value ([3]; Rate 250 g/ha) was 100. The “Barnyardgrass plant response rating” value ([3]; Rate 500 g/ha) was 100, the “Plant response rating, Barnyardgrass” value ([3]; Rate 62 g/ha) was 100 and the “Plant response rating, Barnyardgrass” value ([3]; Rate 125 g/ha) was 100. The “Plant response rating, Corn” value (corn (Zea mays); [19]) was 90, the “Plant response rating, Corn” value (corn (Zea mays); [20]) was 0 and the “Plant response rating (0 to 100), Corn” value (corn (Zea mays); [21]) was 50. For the same compound, the “Plant response rating, Corn” value (corn (Zea mays); [22]) was 20, the “Plant response rating, Lambsquarters” value [4, 19] was 100 and the “Plant response rating, Lambsquarters” value [4, 20] was 100. For the same compound, the “Plant response rating (0 to 100), Lambsquarters” value [4, 21] was 100, the “Plant response rating, Lambsquarters” value [4, 22] was 100 and the “Plant response rating, Sunflower” value (Sunflower [5]; [20]) was 0. For the same compound, the “Plant response rating, Sunflower” value (Sunflower [5]; Rate 500 g/ha, scale 0 to 100) was 40, the “Plant response rating, Nightshade” value (Nightshade; [20]) was 0 and the “Plant response rating, Nightshade” value (Nightshade; Rate 125 g/ha, scale 0 to 100, 0 no effect, 100 complete control) was 0. The “Plant response rating, Nightshade” value (Nightshade; Rate 500 g/ha, scale 0 to 100) was 70, the “Plant response rating, Foxtail, Giant” value [6, 19] was 100 and the “Plant response rating, Foxtail, Giant” value [6, 20] was 90. For the same compound, the “Plant response rating (0 to 100), Foxtail, Giant” value [6, 21] was 100, the “Plant response rating, Foxtail, Giant” value [6, 22] was 0 and the “Plant response rating, Cupgrass, Woolly” value [7, 19] was 100. For the same compound, the “Plant response rating, Cupgrass, Woolly” value [7, 20] was 60, the “Plant response rating (0 to 100), Cupgrass, Woolly” value [7, 21] was 90 and the “Plant response rating, Cupgrass, Woolly” value [7, 22] was 90. For the same compound, the “Plant response rating, Soybean” value (soybean (Glycine max); [19]) was 40, the “Plant response rating (0 to 100), Soybean” value (soybean (Glycine max); [21]) was 40 and the “Plant response rating, Soybean” value (soybean (Glycine max); [22]) was 20. The “Plant response rating, Surinam grass” value [8, 19] was 100, the “Plant response rating, Surinam grass” value [8, 20] was 0 and the “Plant response rating (0 to 100), Surinam grass” value [8, 21] was 90. The “Plant response rating, Surinam grass” value [8, 22] was 80, the “Plant response rating, Goosegrass” value [9, 19] was 100 and the “Plant response rating, Goosegrass” value [9, 20] was 90. The “Plant response rating (0 to 100), Goosegrass” value [9, 21] was 100, the “Plant response rating, Goosegrass” value [9, 22] was 100 and the “Plant response rating, Bermudagrass” value [10, 19] was 100. For the same compound, the “Plant response rating, Bermudagrass” value [10, 20] was 80, the “Plant response rating (0 to 100 where 0 is no effect and 100 is complete control), Bermudagrass” value [10, 21] was 100 and the “Plant response rating, Bermudagrass” value [10, 22] was 100. For the same compound, the “Plant response rating, Morningglory” value [11, 19] was 0, the “Plant response rating, Morningglory” value [11, 20] was 0 and the “Plant response rating (0 to 100), Morningglory” value [11, 21] was 0. For the same compound, the “Plant response rating, Morningglory” value [11, 22] was 0, the “Plant response rating, Velvetleaf” value [12, 19] was 50 and the “Plant response rating, Velvetleaf” value [12, 20] was 0. The “Plant response rating (0 to 100), Velvetleaf” value [12, 21] was 30, the “Plant response rating, Velvetleaf” value [12, 22] was 0 and the “Plant response rating, Johnsongrass” value [13, 19] was 100. The “Plant response rating, Johnsongrass” value [13, 20] was 50, the “Plant response rating (0 to 100), Johnsongrass” value [13, 21] was 100 and the “Plant response rating, Johnsongrass” value [13, 22] was 100. For the same compound, the “Plant response rating, Crabgrass” value [14, 19] was 100, the “Plant response rating, Crabgrass” value [14, 20] was 100 and the “Plant response rating (0 to 100), Crabgrass” value [14, 21] was 100. The “Plant response rating, Crabgrass” value [14, 22] was 100, the “Plant response rating, Pigweed” value [15, 19] was 100 and the “Plant response rating, Pigweed” value [15, 20] was 0. For the same compound, the “Plant response rating (0 to 100), Pigweed” value [15, 21] was 0, the “Plant response rating, Pigweed” value [15, 22] was 100 and the “Plant response rating, Kochia” value (kochia (Kochia scoparia); [19]) was 100. The “Plant response rating, Kochia” value (kochia (Kochia scoparia); [20]) was 60, the “Plant response rating (0 to 100), Kochia” value (kochia (Kochia scoparia); [21]) was 100 and the “Plant response rating, Kochia” value (kochia (Kochia scoparia); [22]) was 90. For the same compound, the “Plant response rating, Cocklebur” value [16, 19] was 60, the “Plant response rating, Cocklebur” value [16, 20] was 20 and the “Plant response rating, Cocklebur” value [16, 22] was 20. The “Plant response rating, Nutsedge” value [17, 19] was 60, the “Plant response rating, Nutsedge” value [17, 20] was 0 and the “Plant response rating (0 to 100), Nutsedge” value [17, 21] was 50. The “Plant response rating, Nutsedge” value [17, 22] was 0 and the “Plant response rating (0 to 100), Sunflower” value (Sunflower [18]) was 30.
